Results from US9242981B2, “Fused pyrazole derivatives as novel ERK inhibitors” (Merck Sharp & Dohme Corp., priority 2010, dated 2016).
pIC50: −log10 of the molar value.

Biological target: Mouse ERK2 protein (Mus musculus (Mouse), UniProt P63085)
Assay: Coupled MEK1/ERK2 IMAP assay or Active ERK2 IMAP assay
Type: biochemical
Conditions: Table 1, class symbols, 30 μM ATP
Procedure: 14 μl of kinase buffer (10 mM Tris.HCl pH 7.2, 10 mM MgCl2, 0.01% Tween-20, 1 mM DTT) containing 0.4 ng unphosphorylated Mouse ERK2 protein is added to each well of a black 384-well assay plate. […] DMSO concentration during initial incubation is 6.7%. […] DMSO concentration during ERK activation was 4%. After one hour, reactions are terminated by addition of 60 μl IMAP detections beads in binding buffer (Molecular Devices). Binding is allowed to equilibrate for 30 minutes before reading the plate on an LJL Analyst Fluorescence Polarization plate reader.
Activated ERK2 activity was also determined in the IMAP assay format using the procedure outlined above. […] Reactions proceeded for 30 minutes before termination by addition of […] IMAP detection beads in binding buffer. Plates were read as above after 30 minute binding equilibration.

Sequence of Mouse ERK2 protein (P63085 whole entry): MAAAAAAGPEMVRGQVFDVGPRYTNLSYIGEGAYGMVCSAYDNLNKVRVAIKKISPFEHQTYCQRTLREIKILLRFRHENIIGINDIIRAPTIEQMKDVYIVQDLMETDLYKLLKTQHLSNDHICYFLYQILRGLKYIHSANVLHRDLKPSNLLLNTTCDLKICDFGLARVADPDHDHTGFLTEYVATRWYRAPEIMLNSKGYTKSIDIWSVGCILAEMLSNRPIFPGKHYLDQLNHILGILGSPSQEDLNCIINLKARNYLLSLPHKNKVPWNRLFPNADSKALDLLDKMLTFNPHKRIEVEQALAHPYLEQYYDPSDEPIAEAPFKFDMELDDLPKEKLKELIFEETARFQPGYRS

Question: With `Cc1cc(-c2n[nH]c3c2CN(C(=O)NC2(C)CCCN(Cc4csc5ccccc45)C2)CC3)ccn1` (stereo not drawn) [Compound 88, N-[1-(benzo[b]thien-3-ylmethyl)-3-methyl-3-piperidinyl]-1,4,6,7-tetrahydro-3-(2-methyl-4-pyridinyl)-5H-pyrazolo[4,3-c]pyridine-5-carboxamide] as the compound, how does the pIC50 read?
Answer: The pIC50 was 6.00 to 7.00.

Question: How did the pIC50 turn out when `Cn1ncc2cc(-c3n[nH]c4c3CN(C(=O)N[C@@H]3CCCN(Cc5c(F)cccc5F)C3)CC4)ccc21` [Compound 134, N-[1-[(2,6-difluorophenyl)-methyl]-3(R)-piperidinyl]-1,4,6,7-tetrahydro-3-(1-methyl-1H-indazol-5-yl)-5H-pyrazolo[4,3-c]pyridine-5-carboxamide] was run?
Answer: The pIC50 was 7.00 to 7.68.

Question: With `Cc1nc2cc(-c3n[nH]c4c3CN(C(=O)N[C@@H]3CCCN(Cc5ccc6ccccc6c5)C3)CC4)ccc2o1` [Compound 154, 1,4,6,7-tetrahydro-3-(2-methyl-5-benzoxazolyl)-N-[1-(2-naphthalenylmethyl)-3(R)-piperidinyl]-5H-pyrazolo[4,3-c]pyridine-5-carboxamide] as the compound, how does the pIC50 read?
Answer: The pIC50 was > 7.70.

Question: `CC1(C(=O)N[C@H]2CNC[C@@H]2c2ccccc2)CCc2[nH]nc(-c3ccncc3)c2C1` (mixture of isomers) [Compound 4, 4,5,6,7-tetrahydro-5-methyl-N-(trans-4-phenyl-3-pyrrolidinyl)-3-(4-pyridinyl)-1H-indazole-5-carboxamide (mixture of isomers)] was tested. Which pIC50 did it give?
Answer: Its pIC50 is 6.00 to 7.00.

Question: How did the pIC50 turn out when `COc1ncccc1NC(=O)C1(C)CCc2[nH]nc(-c3ccncc3)c2C1` (stereo not drawn) [Compound 18, 4,5,6,7-tetrahydro-N-(2-methoxy-3-pyridinyl)-5-methyl-3-(4-pyridinyl)-1H-indazole-5-carboxamide] was run?
Answer: Its pIC50 is 4.00 to 6.00.

Question: `O=C(N[C@@H]1CCCN(Cc2csc3ccccc23)C1)N1CCc2[nH]nc(-c3ccc4c(c3)CCO4)c2C1` [Compound 183, N-[1-(benzo[b]thien-3-ylmethyl)-3(R)-piperidinyl]-3-(2,3-dihydro-5-benzofuranyl)-1,4,6,7-tetrahydro-5H-pyrazolo[4,3-c]pyridine-5-carboxamide] was tested. Which pIC50 did it give?
Answer: Its pIC50 is > 7.70.

Question: How did the pIC50 turn out when `Cc1nc2ccc(-c3n[nH]c4c3CN(C(=O)N[C@@H]3CCCN(Cc5c(F)cccc5F)C3)CC4)cc2s1` [Compound 172, N-[1-[(2,6-difluorophenyl)methyl]-3(R)-piperidinyl]-1,4,6,7-tetrahydro-3-(2-methyl-6-benzothiazolyl)-5H-pyrazolo[4,3-c]pyridine-5-carboxamide] was run?
Answer: The pIC50 was > 7.70.

Question: With `O=C(N[C@H]1CNC[C@@H]1c1ccccc1)C1CCc2[nH]nc(-c3ccc4ncsc4c3)c2C1` (mixture of isomers) [Compound 43, 3-(6-benzothiazolyl)-4,5,6,7-tetrahydro-N-(trans-4-phenyl-3-pyrrolidinyl)-1H-indazole-5-carboxamide] as the compound, how does the pIC50 read?
Answer: Its pIC50 is 4.00 to 6.00.

Question: With `O=C(N1CCc2[nH]nc(-c3ccncc3)c2C1)C1(c2ccc(Cl)cc2Cl)CC1` [Compound 28, 5-[[1-(2,4-dichlorophenyl)-cylcopropyl]carbonyl]-4,5,6,7-tetrahydro-3-(4-pyridinyl)-1H-pyrazolo[4,3-c]pyridine] as the compound, how does the pIC50 read?
Answer: Its pIC50 is 6.00 to 7.00.

Question: How did the pIC50 turn out when `COc1cccc(OC)c1CN1CCC[C@@H](NC(=O)N2CCc3[nH]nc(-c4ccncc4)c3C2)C1` [Compound 73] was run?
Answer: Its pIC50 is 6.00 to 7.00.

Question: `COc1cccc(F)c1CN1CCCC(NC(=O)N2CCc3[nH]nc(-c4ccnc(C)c4)c3C2)C1C` (stereo not drawn) [Compound 122, N-[1-[(2-fluoro-6-methoxyphenyl)methyl]-2-methyl-3-piperidinyl]-1,4,6,7-tetrahydro-3-(2-methyl-4-pyridinyl)-5H-pyrazolo[4,3-c]pyridine-5-carboxamide] was tested. Which pIC50 did it give?
Answer: Its pIC50 is 6.00 to 7.00.

Question: How did the pIC50 turn out when `Cc1cc(-c2n[nH]c3c2CN(C(=O)N[C@@H]2CC[C@H]4CC[C@@H]2N4Cc2c(F)cccc2F)CC3)ccn1` [Compound 178, N-[exo-8-[(2,6-difluorophenyl)methyl]-8-azabicyclo[3.2.1]oct-2-yl]-1,4,6,7-tetrahydro-3-(2-methyl-4-pyridinyl)-5H-pyrazolo[4,3-c]pyridine-5-carboxamide] was run?
Answer: Its pIC50 is > 7.70.

Question: `O=C(N[C@@H]1CCCNC1)N1CCc2[nH]nc(-c3ccncc3)c2C1` (single isomer, unassigned) [Compound 171] was tested. Which pIC50 did it give?
Answer: The pIC50 was 6.00 to 7.00.

Question: With `COC(=O)c1ccccc1CN1CCC[C@@H](NC(=O)N2CCc3[nH]nc(-c4ccncc4)c3C2)C1` [Compound 72, methyl 2-[[3(R)-[[[1,4,6,7-tetrahydro-3-(4-pyridinyl)-5H-pyrazolo[4,3-c]pyridin-5-yl]carbonyl]amino]-1-piperidinyl]methyl]benzoate] as the compound, how does the pIC50 read?
Answer: The pIC50 was 7.00 to 7.68.

Question: `CC(C(=O)N1CCc2[nH]nc(-c3ccncc3)c2C1)c1ccccc1` (stereo not drawn) [Compound 40, 4,5,6,7-tetrahydro-5-(1-oxo-2-phenylpropyl)-3-(4-pyridinyl)-1H-pyrazolo[4,3-c]pyridine] was tested. Which pIC50 did it give?
Answer: Its pIC50 is 4.00 to 6.00.

Question: With `O=C(Cc1ccccc1Cl)N1CCc2[nH]nc(-c3ccncc3)c2C1` [Compound 8, 5-[(2-chlorophenyl)acetyl]-4,5,6,7-tetrahydro-3-(4-pyridinyl)-1H-pyrazolo[4,3-c]pyridine] as the compound, how does the pIC50 read?
Answer: The pIC50 was 6.00 to 7.00.

Question: With `COc1cccc(F)c1CN1[C@H]2CC[C@H](NC(=O)N3CCc4[nH]nc(-c5ccnc(C)c5)c4C3)[C@@H]1CC2` [Compound 160, N-[endo-8-[(2-fluoro-6-methoxyphenyl)methyl]-8-azabicyclo[3.2.1]oct-2-yl]-1,4,6,7-tetrahydro-3-(2-methyl-4-pyridinyl)-5H-pyrazolo[4,3-c]pyridine-5-carboxamide] as the compound, how does the pIC50 read?
Answer: The pIC50 was 6.00 to 7.00.

Question: `O=C(NC1CC(O)CN(Cc2ccccc2Cl)C1)N1CCc2[nH]nc(-c3ccncc3)c2C1` (stereo not drawn) [Compound 114, N-[1-[(2-chlorophenyl)-methyl]-5-hydroxy-3-piperidinyl]-1,4,6,7-tetrahydro-3-(4-pyridinyl)-5H-pyrazolo[4,3-c]pyridine-5-carboxamide] was tested. Which pIC50 did it give?
Answer: The pIC50 was > 7.70.

Question: How did the pIC50 turn out when `O=C(Cc1cccs1)N1CCc2[nH]nc(-c3ccncc3)c2C1` [Compound 7, 4,5,6,7-tetrahydro-3-(4-pyridinyl)-5-(2-thienylacetyl)-1H-pyrazolo[4,3-c]pyridine] was run?
Answer: The pIC50 was 4.00 to 6.00.

Question: With `Cc1nc2cc(-c3n[nH]c4c3CN(C(=O)N[C@@H]3CCCN(Cc5csc6ccccc56)C3)CC4)ccc2o1` [Compound 152, N-[1-(benzo[b]thien-3-ylmethyl)-3(R)-piperidinyl]-1,4,6,7-tetrahydro-3-(2-methyl-5-benzoxazolyl)-5H-pyrazolo[4,3-c]pyridine-5-carboxamide] as the compound, how does the pIC50 read?
Answer: The pIC50 was > 7.70.

Question: `Cc1cccc(C)c1CN1CCC[C@@H](NC(=O)N2CCc3[nH]nc(-c4ccc5c(cnn5C)c4)c3C2)C1` [Compound 127, N-[1-[(2,6-dimethylphenyl)-methyl]-3(R)-piperidinyl]-1,4,6,7-tetrahydro-3-(1-methyl-1H-inclazol-5-yl)-5H-pyrazolo[4,3-c]pyridine-5-carboxamide] was tested. Which pIC50 did it give?
Answer: Its pIC50 is > 7.70.

Question: How did the pIC50 turn out when `O=C(N[C@@H]1CCCN(Cc2nccs2)C1)N1CCc2[nH]nc(-c3ccncc3)c2C1` [Compound 55, 1,4,6,7-tetrahydro-3-(4-pyridinyl)-N-[1-(2-thiazolylmethyl)-3(R)-piperidinyl]-5H-pyrazolo[4,3-c]pyridine-5-carboxamide] was run?
Answer: Its pIC50 is 7.00 to 7.68.

Question: How did the pIC50 turn out when `O=C(Cc1ccccc1C(F)(F)F)N1CCc2[nH]nc(-c3ccncc3)c2C1` [Compound 26] was run?
Answer: The pIC50 was 6.00 to 7.00.

Question: How did the pIC50 turn out when `COc1cccc(CC(=O)N2CCc3[nH]nc(-c4ccncc4)c3C2)c1` [Compound 3, 4,5,6,7-tetrahydro-5-[(3-methoxyphenyl)acetyl]-3-(4-pyridinyl)-1H-pyrazolo[4,3-c]pyridine] was run?
Answer: The pIC50 was 4.00 to 6.00.

Question: With `CC1(C(=O)Nc2ccccc2OCC2CCCO2)CCc2[nH]nc(-c3ccncc3)c2C1` (stereo not drawn) [Compound 20, 4,5,6,7-tetrahydro-5-methyl-3-(4-pyridinyl]-N-[2 [(tetrahydro-2-furanyl)-methoxy]phenyl]-1H-indazole-5-carboxamide] as the compound, how does the pIC50 read?
Answer: Its pIC50 is 4.00 to 6.00.

Question: With `COc1ccc2ccccc2c1CN1CCC[C@@H](NC(=O)N2CCc3[nH]nc(-c4ccnc(C)c4)c3C2)C1` [Compound 97, 1,4,6,7-tetrahydro-N-[1-[(2-Methoxy-1-naphthalenyl)-methyl]-3(R)-piperidinyl]-3-(2-methyl-4-pyridinyl)-5H-pyrazolo[4,3-c]pyridine-5-carboxamide] as the compound, how does the pIC50 read?
Answer: Its pIC50 is 7.00 to 7.68.

Question: How did the pIC50 turn out when `Cc1cc(-c2n[nH]c3c2CN(C(=O)NC2CC(C)CN(Cc4cnc5ccccc5c4)C2)CC3)ccn1` (stereo not drawn) [Compound 96, 1,4,6,7-tetrahydro-3-(2-methyl-4-pyridinyl)-N-[5-methyl-1-(3-quinolinylmethyl)-3-piperidinyl]-5H-pyrazolo[4,3-c]pyridine-5-carboxamide] was run?
Answer: Its pIC50 is 6.00 to 7.00.

Question: `COc1ccc(-c2n[nH]c3c2CN(C(=O)N[C@@H]2CCCN(Cc4c(C)cccc4C)C2)CC3)cc1F` [Compound 124, N-[1-[(2,6-dimethylphenyl)-methyl]-3(R)-piperidinyl]-3-(3-fluoro-4-methoxyphenyl)-1,4,6,7-tetrahydro-5H-pyrazolo[4,3-c]pyridine-5-carboxamide] was tested. Which pIC50 did it give?
Answer: Its pIC50 is 7.00 to 7.68.

Question: How did the pIC50 turn out when `CCn1cc(-c2n[nH]c3c2CN(C(=O)N[C@@H]2CN(C)C[C@H]2c2ccccc2C(F)(F)F)CC3)cn1` (racemic) [Compound 155, 3-(1-ethyl-1H-pyrazol-4-yl)-1,4,6,7-tetrahydro-N-[trans1-methyl-4-[2-(trifluoromethyl)phenyl]-3-pyrrolidinyl]-5H-pyrazolo[4,3-c]pyridine-5-carboxamide] was run?
Answer: The pIC50 was > 7.70.

Same assay, conditions: Table 2, 30 μM ATP

Question: With `Cc1ccccc1[C@@H]1CN(C)C[C@H]1NC(=O)N1CCc2[nH]nc(-c3ccc4c(c3)CCO4)c2C1` (racemic) [Compound 145, 3-(2,3-dihydro-5-benzofuranyl)-1,4,6,7-tetrahydro-N-[trans-1-methyl-4-(2-methylphenyl)-3-pyrrolidinyl]-5H-pyrazolo[4,3-c]pyridine-5-carboxamide] as the compound, how does the pIC50 read?
Answer: The pIC50 was 8.82.
